Measurements from the supplement of paper PMC11061612.

Tests used:
[1] = system: LXF-289 (Lung Adenocarcinoma); test: combination Emax (second highest fraction inhibited in the dose matrix, 72 h); higher = more inhibition; extreme values may be limits of the assay
Method in brief: (§1)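 Cell lines grown in DMEM/F12 or RPMI with 10% FBS were plated in 1536-well plates and held 24 hours at 37°C, 5% CO2 before 72 hours of exposure to two-drug dose matrices, with DMSO typically at 0.2%. CellTiter-Glo 2.0 luminescence gave viability, which was converted to inhibition. Vehicle wells were set to 0 and blank wells to 1. Combination Emax is the second-highest inhibition in the matrix, and Bliss excess is the observed combination effect minus the expected EA + EB − EA·EB, where EA and EB are the single-agent effects.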

[2] = system: HSC-39 (Gastric Carcinoma); test: as above
Method in brief: as §1

[3] = system: REH (B-Lymphoblastic Leukemia); test: Bliss excess, mean over the matrix (fraction); higher = more synergy
Method in brief: as §1

[4] = system: SHP-77 (Small Cell Lung Carcinoma); test: as above
Method in brief: as §1

[5] = system: NCI-H2342 (Lung Adenocarcinoma); test: as above
Method in brief: as §1

[6] = system: OAW-42 (Ovarian Carcinoma); test: as above
Method in brief: as §1

[7] = system: SK-PN-DW (Other Solid Carcinomas); test: as above
Method in brief: as §1

IST-MES1 (Mesothelioma) = test: as above
Method in brief: as §1

[8] = system: PSN1 (Pancreatic Carcinoma); test: as above
Method in brief: as §1

[9] = system: LK-2 (Squamous Cell Lung Carcinoma); test: as above
Method in brief: as §1

GB-1 (Glioblastoma) = test: as above
Method in brief: as §1

[10] = system: MFE-280 (Endometrial Carcinoma); test: as above
Method in brief: as §1

[11] = system: CAL-120 (Breast Carcinoma); test: as above
Method in brief: as §1

[12] = system: OVMIU (Ovarian Carcinoma); test: as above
Method in brief: as §1

[13] = system: CAL-62 (Thyroid Gland Carcinoma); test: as above
Method in brief: as §1

SF268 (Low Grade Glioma) = test: as above
Method in brief: as §1

WM278 (Melanoma) = test: as above
Method in brief: as §1

[14] = system: VAL (B-Cell Non-Hodgkin's Lymphoma); test: as above
Method in brief: as §1

[15] = system: GP5d (Colorectal Carcinoma); test: as above
Method in brief: as §1

[16] = system: RKN (Other Solid Carcinomas); test: combination Emax (second highest fraction inhibited in the dose matrix, 72 h); higher = more inhibition; extreme values may be limits of the assay
Method in brief: as §1
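For Bliss excess, mean over the matrix in this document: after 72 h of two-drug dosing.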

Row | SMILES | combination Emax [1] | combination Emax [2] | Bliss excess [3] | Bliss excess [4] | Bliss excess [5] | Bliss excess [6] | Bliss excess [7] | Bliss excess (IST-MES1 (Mesothelioma)) | Bliss excess [8] | Bliss excess [9] | Bliss excess (GB-1 (Glioblastoma)) | Bliss excess [10] | Bliss excess [11] | Bliss excess [12] | Bliss excess [13] | Bliss excess (SF268 (Low Grade Glioma)) | Bliss excess (WM278 (Melanoma)) | Bliss excess [14] | Bliss excess [15] | combination Emax [16]
1 | CN(CCO)CC[C@H](CSc1ccccc1)Nc1ccc(S(=O)(=O)NC(=O)c2ccc(N3CCC([C@@H](O)c4ccccc4-c4ccc(Cl)cc4)CC3)cc2)cc1S(=O)(=O)C(F)(F)F [AZD4320] + CCN(CCO)CCCOc1ccc2c(Nc3cc(CC(=O)Nc4cccc(F)c4)[nH]n3)ncnc2c1 [AZD2811] (first compound max 1 µM, 7x7, partner max 1 µM) | 0.471 | 0.966 | 0.175 | -0.0019 | -0.036 | -0.0359 | 0.0024 | -0.0265 | -0.0029 | 0.0358 | -0.0189 | 0.0821 | 0.0227 | -0.0627 | 0.0354 | 0.0843 | 0.0469 | -0.0063 | 0.0026 | –
2 | COc1nnc2ccc(N3CCC(c4ccc(OCCN5CCN(C)C(=O)[C@H]5C)cc4)CC3)nn12 [AZD5153] + CN(CC[C@H](CSC1=CC=CC=C1)NC2=C(C=C(C=C2)S(=O)(=O)NC(=O)C3=CC=C(C=C3)N4CCC(CC4)[C@H](C5=CC=CC=C5C6=CC=C(C=C6)Cl)O)S(=O)(=O)C(F)(F)F)CCO [AZD4320] (first compound max 1 µM, 7x7, partner max 1 µM) | 0.667 | – | – | – | – | 0.0913 | – | – | – | – | 0.0003 | – | 0.0415 | – | – | -0.0183 | 0.0168 | – | 0.0199 | –
3 | Cc1c2c(nn1C)CSCc1cc(n(C)n1)CSc1cc(c3ccccc3c1)OCCCc1c(C(=O)O)n(C)c3c-2c(Cl)ccc13 [AZD5991] + C1CN(CCC1(C(=O)N[C@@H](CCO)C2=CC=C(C=C2)Cl)N)C3=NC=NC4=C3C=CN4 [Capivasertib] (first compound max 1 µM, 7x7, partner max 3 µM) | 0.369 | 1 | -0.0557 | -0.0033 | 0.0351 | 0.0312 | 0.032 | -0.0195 | -0.0533 | -0.0103 | -0.0365 | 0.027 | 0.0424 | 0.0023 | – | -0.008 | -0.0498 | -0.0223 | -0.0493 | 0.173
4 | Cc1c2c(nn1C)CSCc1cc(n(C)n1)CSc1cc(c3ccccc3c1)OCCCc1c(C(=O)O)n(C)c3c-2c(Cl)ccc13 [AZD5991] + CN(C)CCCOc1ccc(-c2ccc3ncc4c(c3c2)n(C2CCOCC2)c(=O)n4C)cn1 [AZD0156] (first compound max 1 µM, 7x7, partner max 1 µM) | 0.427 | 1 | -0.0321 | -0.0033 | -0.016 | 0.0454 | -0.0117 | 0.0029 | – | 0.0039 | 0.0075 | -0.0159 | -0.036 | -0.0328 | -0.0061 | 0.0324 | -0.0196 | -0.0034 | -0.0201 | 0.173
5 | Cc1c2c(nn1C)CSCc1cc(n(C)n1)CSc1cc(c3ccccc3c1)OCCCc1c(C(=O)O)n(C)c3c-2c(Cl)ccc13 [AZD5991] + C[C@@H](Nc1cc(F)cc(F)c1)c1cc(C(=O)N(C)C)cc2c(=O)cc(N3CCOCC3)oc12 [AZD8186] (first compound max 1 µM, 7x7, partner max 3 µM) | 0.47 | 1 | -0.024 | -0.0379 | -0.0027 | 0.0262 | 0.0126 | -0.0524 | -0.0407 | 0.0056 | -0.0152 | 0.0185 | -0.0318 | -0.0181 | – | -0.0095 | 0.0096 | 0.0426 | -0.0645 | 0.289
6 | COc1cccc2c1C(=O)c1c(O)c3c(c(O)c1C2=O)C[C@@](O)(C(=O)CO)C[C@@H]3O[C@H]1C[C@H](N)[C@H](O)[C@H](C)O1 [Doxorubicin] + Cc1cc2ncnn2cc1Nc1ncc2c(n1)n(C1CCOCC1)c(=O)n2C [AZD7648] (first compound max 1 µM, 7x7, partner max 10 µM) | 0.4 | 0.867 | 0.177 | 0.0556 | 0.0128 | – | 0.105 | 0.0455 | 0.0173 | 0.0925 | 0.0165 | 0.0107 | 0.0064 | -0.0193 | 0.0885 | 0.0462 | 0.0204 | 0.0974 | 0.081 | 0.693
7 | CC(=O)c1c(C)c2cnc(Nc3ccc(N4CCNCC4)cn3)nc2n(C2CCCC2)c1=O [Palbociclib] + CN(CC[C@H](CSC1=CC=CC=C1)NC2=C(C=C(C=C2)S(=O)(=O)NC(=O)C3=CC=C(C=C3)N4CCC(CC4)[C@H](C5=CC=CC=C5C6=CC=C(C=C6)Cl)O)S(=O)(=O)C(F)(F)F)CCO [AZD4320] (first compound max 10 µM, 7x7, partner max 1 µM) | 0.449 | – | – | – | – | -0.0177 | – | – | – | – | -0.111 | – | -0.0614 | – | – | -0.0438 | -0.106 | – | 0.0238 | –
8 | COc1cccc(OCCCN)c1-c1cc(Nc2cnc(C#N)cn2)n[nH]1 [Prexasertib] + C=CCn1c(=O)c2cnc(Nc3ccc(N4CCN(C)CC4)cc3)nc2n1-c1cccc(C(C)(C)O)n1 [AZD1775] (first compound max 1 µM, partner max 1 µM) | 0.834 | 1 | 0.114 | 0.0413 | -0.0136 | – | 0.0025 | 0.127 | 0.178 | 0.0739 | 0.0483 | 0.176 | 0.0551 | 0.0574 | 0.137 | 0.0619 | 0.0753 | 0.0026 | 0.035 | 0.833
9 | COc1cccc(OCCCN)c1-c1cc(Nc2cnc(C#N)cn2)n[nH]1 [Prexasertib] + CN(C)CCCOc1ccc(-c2ccc3ncc4c(c3c2)n(C2CCOCC2)c(=O)n4C)cn1 [AZD0156] (first compound max 1 µM, 7x7, partner max 1 µM) | 0.772 | 1 | 0.0171 | 0.0107 | -0.0272 | – | -0.0141 | -0.0211 | -0.0038 | -0.0181 | -0.0079 | -0.0219 | 0.0088 | -0.0012 | -0.0364 | 0.0592 | 0.0128 | -0.0162 | 0.0215 | 0.67
10 | COc1cccc(OCCCN)c1-c1cc(Nc2cnc(C#N)cn2)n[nH]1 [Prexasertib] + C[C@@H]1COCCN1C2=NC(=NC(=C2)C3(CC3)[S@](=N)(=O)C)C4=C5C=CNC5=NC=C4 [AZD6738] (first compound max 1 µM, 7x7, partner max 10 µM) | 0.762 | 1 | 0.0032 | 0.0645 | 0.0378 | – | -0.0438 | 0.0093 | 0.0334 | -0.0182 | -0.0337 | -0.024 | 0.0093 | 0.0388 | -0.005 | -0.0421 | -0.0364 | -0.0637 | -0.0157 | 0.577
11 | COc1cccc(OCCCN)c1-c1cc(Nc2cnc(C#N)cn2)n[nH]1 [Prexasertib] + Cc1cc2ncnn2cc1Nc1ncc2c(n1)n(C1CCOCC1)c(=O)n2C [AZD7648] (first compound max 1 µM, 7x7, partner max 10 µM) | 0.724 | 1 | -0.0041 | -0.0143 | -0.0216 | – | -0.0503 | -0.0032 | 0.0106 | -0.037 | 0.0387 | 0.0032 | 0.0045 | -0.0211 | -0.0128 | 0.0078 | -0.009 | -0.0204 | 0.033 | 0.658
12 | COc1cccc(OCCCN)c1-c1cc(Nc2cnc(C#N)cn2)n[nH]1 [Prexasertib] + O=C(c1cc(Cc2n[nH]c(=O)c3ccccc23)ccc1F)N1CCN(C(=O)C2CC2)CC1 [Olaparib] (first compound max 1 µM, 7x7, partner max 10 µM) | 0.783 | 1 | -0.0271 | -0.0791 | -0.0509 | – | -0.0689 | -0.0105 | -0.0146 | -0.0249 | -0.0002 | -0.0223 | -0.0552 | -0.0938 | -0.0031 | 0.0208 | -0.0732 | -0.0518 | -0.0179 | 0.678
13 | COc1cc2c(cc1OCCCCCOc1cc3c(cc1OC)C(=O)N1C=C(C)C[C@H]1C=N3)N=C[C@@H]1CC(C)=CN1C2=O [SG3199] + O=C(c1cc(Cc2n[nH]c(=O)c3ccccc23)ccc1F)N1CCN(C(=O)C2CC2)CC1 [Olaparib] (first compound max 0.001 µM, 7x7, partner max 10 µM) | 0.119 | 0.185 | -0.0099 | -0.0137 | -0.0569 | – | -0.0295 | -0.0402 | -0.0371 | -0.0137 | -0.0328 | -0.0092 | -0.0329 | -0.0898 | -0.0342 | -0.0297 | -0.0299 | -0.0069 | -0.0206 | 0.0618
14 | CCc1c2c(nc3ccc(O)cc13)-c1cc3c(c(=O)n1C2)COC(=O)[C@]3(O)CC [SN-38] + CN(C)CCCOc1ccc(-c2ccc3ncc4c(c3c2)n(C2CCOCC2)c(=O)n4C)cn1 [AZD0156] (first compound max 0.3 µM, 7x7, partner max 1 µM) | 0.599 | 0.964 | -0.0093 | 0.0296 | -0.0425 | – | 0.0355 | 0.0085 | -0.0198 | 0.0959 | -0.0374 | -0.0605 | -0.0792 | -0.0047 | -0.0143 | 0.0609 | 0.042 | 0 | 0.0624 | 0.631
15 | C[C@@H](c1ccc2nccn2c1)n1nnc2ncc(-c3cnn(C)c3)nc21 [Savolitinib] + CN(CC[C@H](CSC1=CC=CC=C1)NC2=C(C=C(C=C2)S(=O)(=O)NC(=O)C3=CC=C(C=C3)N4CCC(CC4)[C@H](C5=CC=CC=C5C6=CC=C(C=C6)Cl)O)S(=O)(=O)C(F)(F)F)CCO [AZD4320] (first compound max 1 µM, 7x7, partner max 1 µM) | 0.188 | – | – | – | – | -0.0451 | – | – | – | – | -0.0653 | – | -0.0325 | – | – | -0.0491 | -0.0406 | – | -0.0339 | –
